According to US4199600A, “Preservation of aqueous systems with α-halo-β-aminocrotonic acid esters” (Givaudan Corporation, priority 1978, dated 1980):
Converted amounts (≈) assume the structure as drawn. Read-outs that look alike come from different tables or passages of the source.

Assays:
Format in all cases: cell-based
Aspergillis oryzae = assay: General antimicrobial activity, agar dilution MIC (fungi); conditions: 168 h, mildew glucose agar, 28° C., seven days, growth only at the lower concentration of the range, read-out: Minimum Inhibitory Concentration
Description: A 6% soltuion of α-halo-β-aminocrotonic acid ester in dimethyl formamide was prepared. The 6% solution was then […] serially diluted in test tubes to give the desired concentrations when mixed with agar and poured into sterile Petri dishes. For instance, 0.8 ml of a 6% stock solution plus 24.2 ml of agar gives a test concentration of 1920 mcg/ml, the highest level tested. Tryptone glucose extract agar is used for the bacterial testing; mildew glucose agar for the fungal testing. The bacterial plates were spot inoculated with 24-hour nutrient broth cultures and incubated at 37° C. for 48 hours. The fungal plates were spot inoculated with spore suspensions and incubated at 28° C. for seven days. At the end of the incubation periods, all plates were examined for growth. The minimum inhibitory concentration (MIC) for each organism is expressed in Table I. In the ranges presented, growth is observed only at the lower concentration.

Aspergillus niger = assay: Cosmetic preservative test in lotion; conditions: 28° C.
Description: (§1) The α-halo-β-aminocrotonic acid esters are effective cosmetic preservatives. Two-fold serial dilutions of 6% solutions of the α-halo-β-aminocrotonic acid esters in dimethylformamide were added to a cosmetic lotion of the following formulation: The lotions were inoculated with both Pseudomonas aeruginosa and Aspergillus niger and incubated at 28° C. At weekly intervals, the lotions were examined for microorganisms by conventional streak-plate methods or by macroscopic observation. The lotions were then reinoculated with the test organisms and reincubated.

Pseudomonas aeruginosa [1] = assay: Cosmetic preservative test in lotion; conditions: 28° C.
Description: as §1

Pseudomonas aeruginosa [2] = assay: Cutting oil preservative test in 3.3% cutting oil emulsion; conditions: for MIC: Pseudomonas aeruginosa, 3.3% cutting oil emulsion, 28° C., rotary shaker, read-out: Minimum Inhibitory Concentration Range
Description: (§2) In running these tests, two-fold serial dilutions of 6% solutions of the compound in dimethylformamide was added to 3.3% cutting oil elumsions. The emulsions were prepared by diluting with water a commercially available cutting oil concentrate. The emulsions were inoculated with a culture of Pseudomonas aeruginosa and incubated at 28° C. on a rotary shaker. At weekly intervals, the emulsions were examined for bacteria by conventional streakplate methods. The emulsions were then reinoculated with Pseudomonas aeruginosa and reincubated.

Pseudomonas aeruginosa [3] = assay: Textile lubricant preservative test; conditions: commercial textile lubricant, 28° C.
Description: as §2
The test run was the same as for the cutting oil above except that a commercial textile lubricant was substituted.

A. niger = assay: Slimicide test for pulp and paper mill water systems; conditions: 28° C.
Description: (§3) Various quantities of a 6% solution of this compound in dimethylformamide were incorporated into 24 ml of a test substrate composed as follows:
(§4) 8.4 g--Whatman No. 2 powdered cellulose
(§5) 1.0 g--Nutrient Broth, Difco
(§6) 10.0 ml--Mersize Rm 70R (Monsanto)
(§7) The samples were inoculated with four different organisms and incubated at 28° C. At weekly intervals the samples were examined for the presence of microbial growth and reinoculated during a total incubation period of four weeks.

E. aerogenes = assay: as above; conditions: Klebsiella aerogenes, 28° C.
Description: as §3, §4, §5, §6, §7

P. Piscarium = assay: as above; conditions: 28° C.
Description: as §3, §4, §5, §6, §7

P. aeruginosa = assay: as above; conditions: 28° C.
Description: as §3, §4, §5, §6, §7

[4] = week 1, read-out: Minimum Inhibitory Concentration Range
[5] = week 3, reinoculated weekly, read-out: Minimum Inhibitory Concentration Range
[6] = week 4, reinoculated weekly, read-out: Minimum Inhibitory Concentration Range
[7] = (week 4), reinoculated weekly, read-out: Effectiveness as a Slimicide
[8] = week 1, read-out: Effectiveness as a Slimicide
[9] = week 2, reinoculated weekly, read-out: Effectiveness as a Slimicide
[10] = week 3, reinoculated weekly, read-out: Effectiveness as a Slimicide

Structure (SMILES): COC(=O)/C(Cl)=C(/C)N [α-Chloro-β-aminocrotonic acid methyl ester]
- MIC (Aspergillis oryzae): 15 µg/mL (≈ 100 µM)
- MIC (Aspergillus niger; [4]): < 125 µg/mL
- MIC (Aspergillus niger; [5]): 1000 to 2000 µg/mL (≈ 6690 to 13400 µM)
- MIC (Aspergillus niger; [6]): > 2000 µg/mL
- Minimum Inhibitory Concentration Range (Pseudomonas aeruginosa [1]; week 2, reinoculated weekly): < 125 µg/mL
- Minimum Inhibitory Concentration Range (Pseudomonas aeruginosa [1]; week 3, reinoculated weekly): < 125 µg/mL
- Minimum Inhibitory Concentration Range (Pseudomonas aeruginosa [1]; week 4, reinoculated weekly): < 125 µg/mL
- MIC (Pseudomonas aeruginosa [1]; Pseudomonas aeruginosa, week 1, read-out: Minimum Inhibitory Concentration Range): < 125 µg/mL
- MIC (Pseudomonas aeruginosa [2]; week 1): < 31.3 µg/mL
- MIC (Pseudomonas aeruginosa [2]; week 2, reinoculated weekly): 62.5 to 125 µg/mL (≈ 418 to 836 µM)
- MIC (Pseudomonas aeruginosa [2]; week 3, reinoculated weekly): 125 to 250 µg/mL (≈ 836 to 1670 µM)
- MIC (Pseudomonas aeruginosa [2]; week 4, reinoculated weekly): 250 to 500 µg/mL (≈ 1670 to 3340 µM)
- effectiveness as cutting oil preservative (in words) (Pseudomonas aeruginosa [2]; overall statement on Table III): effective cutting preservative
- MIC (Pseudomonas aeruginosa [3]; [4]): 62.5 to 125 µg/mL (≈ 418 to 836 µM)
- MIC (Pseudomonas aeruginosa [3]; week 2, reinoculated weekly, read-out: Minimum Inhibitory Concentration Range): 62.5 to 125 µg/mL (≈ 418 to 836 µM)
- MIC (Pseudomonas aeruginosa [3]; [5]): 62.5 to 125 µg/mL (≈ 418 to 836 µM)
- MIC (Pseudomonas aeruginosa [3]; [6]): 125 to 250 µg/mL (≈ 836 to 1670 µM)
- Effectiveness as a Slimicide (A. niger; (week 4), reinoculated weekly): < 62.5 µg/mL
- Effectiveness as a Slimicide (A. niger; week 2, reinoculated weekly): < 62.5 µg/mL
- Effectiveness as a Slimicide (A. niger; week 3, reinoculated weekly): < 62.5 µg/mL
- MIC (A. niger; Aspergillus niger, week 1, read-out: Effectiveness as a Slimicide): < 62.5 µg/mL
- MIC (E. aerogenes; [7]): 250 to 500 µg/mL (≈ 1670 to 3340 µM)
- MIC (E. aerogenes; [8]): < 62.5 µg/mL
- MIC (E. aerogenes; [9]): 125 to 250 µg/mL (≈ 836 to 1670 µM)
- MIC (E. aerogenes; [10]): 250 to 500 µg/mL (≈ 1670 to 3340 µM)
- MIC (P. Piscarium; [7]): 62.5 to 125 µg/mL (≈ 418 to 836 µM)
- MIC (P. Piscarium; [8]): < 62.5 µg/mL
- MIC (P. Piscarium; [9]): < 62.5 µg/mL
- MIC (P. Piscarium; [10]): < 62.5 µg/mL
- Effectiveness as a Slimicide (P. aeruginosa; (week 4), reinoculated weekly): < 62.5 µg/mL
- Effectiveness as a Slimicide (P. aeruginosa; week 2, reinoculated weekly): < 62.5 µg/mL
- Effectiveness as a Slimicide (P. aeruginosa; week 3, reinoculated weekly): < 62.5 µg/mL
- MIC (P. aeruginosa; Pseudomonas aeruginosa, week 1, read-out: Effectiveness as a Slimicide): < 62.5 µg/mL
